These results are taken from patent US11001590B2, “Pyrazolopyrimidine derivatives” (BAYER ANIMAL HEALTH GMBH, priority 2016, dated 2021).

Data set [1] deals with Nippostrongylus brasiliensis. Put plainly: In vitro assay 2: Nippostrongylus brasiliensis (NIPOBR), acetylcholine esterase readout. The note with it: adult worms, 10 μg/ml (10 ppm), read-out: activity (reduction of AChE compared to negative control). As to the method:
In Vitro Assay 2: Nippostronqylus Brasiliensis (NIPOBR)
Adult Nippostrongylus brasiliensis were washed with saline buffer containing 100 U/ml penicillin, 0.1 mg/ml streptomycin and 2.5 μg/ml amphotericin B. Test compounds were dissolved in DMSO and worms were incubated in medium in a final concentration of 10 μg/ml (10 ppm) respectively 1 μg/ml (1 ppm). An aliquot of the medium was used to determine the acetylcholine esterase activity in comparison to a negative control. The principle of measuring acetylcholine esterase as readout for anthelmintic activity was described in Rapson et al (1986) and Rapson et al (1987).

Data set [2] addresses C. elegans Slo-1a (Caenorhabditis elegans, UniProt Q95V25). As to the kind of experiment: In vitro assay 1: C. elegans Slo-1a, action at a recombinant C. elegans CHO cell line (membrane potential measurement).
Data set [3] in a line: log P by HPLC on reversed phase columns (Method L0; [a] acidic, [b] neutral range).
Experimental: Calibration was done with straight-chain alkan-2-ones (with 3 to 16 carbon atoms) with known log P values (measurement of log P values using retention times with linear interpolation between successive alkanones). Lambda-max-values were determined using UV-spectra from 200 nm to 400 nm and the peak values of the chromatographic signals.
Data set [4] relates to Dirofilaria immitis microfilariae. As to the kind of experiment: In vitro assay 3: Dirofilaria immitis microfilariae (DIROIM L1), motility. To be noted: 72 h, reduction of motility vs negative control, 72 h incubation.
The subject of data set [5] is Dirofilaria immitis third-stage larvae. As to the kind of experiment: In vitro assay 4: Dirofilaria immitis (DIROIM L4), motility of larvae. To be noted: 72 h.
Data set [6] concerns Litomosoides sigmodontis third-stage larvae. As to the kind of experiment: In vitro assay 7: Litomosoides sigmodontis L3 (LTMOSI), motility. The note with it: 72 h, reduction of motility vs negative control, 72 h incubation.

Sequence of C. elegans Slo-1a (Q95V25 whole entry): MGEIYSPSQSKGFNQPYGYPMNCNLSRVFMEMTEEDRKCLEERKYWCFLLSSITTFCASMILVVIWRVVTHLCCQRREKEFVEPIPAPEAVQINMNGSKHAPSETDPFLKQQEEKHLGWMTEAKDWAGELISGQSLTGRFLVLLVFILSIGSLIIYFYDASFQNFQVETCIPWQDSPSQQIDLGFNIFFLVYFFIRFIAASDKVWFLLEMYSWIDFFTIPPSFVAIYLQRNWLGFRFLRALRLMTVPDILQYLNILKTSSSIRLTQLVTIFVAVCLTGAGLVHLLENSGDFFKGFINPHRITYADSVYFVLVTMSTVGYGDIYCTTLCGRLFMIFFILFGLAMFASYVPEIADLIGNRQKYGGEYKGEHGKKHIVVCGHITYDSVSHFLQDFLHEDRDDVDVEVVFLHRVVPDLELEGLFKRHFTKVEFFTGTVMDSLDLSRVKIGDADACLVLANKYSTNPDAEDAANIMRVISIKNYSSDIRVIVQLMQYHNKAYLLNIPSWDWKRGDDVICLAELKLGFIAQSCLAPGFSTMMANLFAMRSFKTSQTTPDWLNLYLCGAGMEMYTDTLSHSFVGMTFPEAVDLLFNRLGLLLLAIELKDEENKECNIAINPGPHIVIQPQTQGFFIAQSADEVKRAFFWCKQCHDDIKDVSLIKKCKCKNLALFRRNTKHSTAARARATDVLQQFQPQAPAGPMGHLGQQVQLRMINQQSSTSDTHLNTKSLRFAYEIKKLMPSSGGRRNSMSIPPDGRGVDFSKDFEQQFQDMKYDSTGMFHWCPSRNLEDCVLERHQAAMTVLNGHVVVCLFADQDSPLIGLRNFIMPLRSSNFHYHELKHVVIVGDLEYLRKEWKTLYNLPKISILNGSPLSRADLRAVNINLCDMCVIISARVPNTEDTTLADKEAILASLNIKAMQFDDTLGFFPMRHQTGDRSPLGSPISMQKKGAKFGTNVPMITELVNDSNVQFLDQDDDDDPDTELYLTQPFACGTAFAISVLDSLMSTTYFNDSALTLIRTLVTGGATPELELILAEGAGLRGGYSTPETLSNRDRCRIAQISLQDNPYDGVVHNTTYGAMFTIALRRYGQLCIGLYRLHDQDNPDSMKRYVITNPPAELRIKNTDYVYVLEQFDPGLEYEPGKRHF

`Cc1nn2c(C(C)C)c(C(=O)N[C@H]3CCOc4ccccc43)cnc2c1-c1cccc(OC(C)C)c1F` [Example 188]: in data set [1], the inhibition at 10 µg/mL was greater than 80%. The values for the EC50 in data set [2] and in data set [4] were 12.6 nM and less than 1 µg/mL, respectively. Also, in data set [3], the chromatographic logP – broadly, a lipophilicity value derived from retention on a column – was 4.79.

For the compound `Cc1nn2c(C(C)C)c(C(=O)N[C@H]3CCOc4ccccc43)cnc2c1-c1ccc(Br)cc1` [Example 206], the inhibition at 10 µg/mL in data set [1] is greater than 80%. The EC50 (as a rule, the concentration at which the effect is half-maximal) is 12.6 nM in data set [2] and less than 1 µg/mL in data set [4]. The compound further showed a chromatographic logP in data set [3] of 5.02.

Take `CC(C)c1c(C(=O)N[C@H]2CCOc3ccccc32)cnc2c(-c3cc(Cl)cc(Cl)c3)c(S(C)(=O)=O)nn12` [Example 219]: the inhibition at 10 µg/mL in data set [1] is greater than 80%. The 50% effective concentration (EC50) in data set [2] is 20 nM; in data set [4], less than 1 µg/mL. The chromatographic logP in data set [3] stood at 4.16.

For the compound `COc1ccc(-c2c(C)nn3c(C(C)C)c(C(=O)N[C@H]4CCOc5ccccc54)cnc23)cc1OC` [Example 242], the inhibition at 10 µg/mL in data set [1] is greater than 80%. Further, the EC50 was 79.4 nM in data set [2] and less than 10 µg/mL in data set [4]. The compound further yielded a chromatographic logP in data set [3] of 3.9.

As to `Cc1nn2c(C(C)C)c(C(=O)N[C@H]3CCOc4ccccc43)cnc2c1-c1cccc2c1OC(F)(F)O2` [Example 257], the inhibition at 10 µg/mL in data set [1] was greater than 80%. The results for the EC50 in data set [2] and in data set [4] were 6.31 nM and less than 0.1 µg/mL, respectively. Moreover, the chromatographic logP in data set [3] was found to be 4.87.

Consider `Cc1nn2c(C(C)C)c(C(=O)N[C@H]3CCCc4ccccc43)cnc2c1-c1cc(Cl)cc(Cl)c1F` [Example 265], for which the inhibition at 10 µg/mL in data set [1] was greater than 80%. Besides, the EC50 is 2.51 nM in data set [2] and less than 1 µg/mL in data set [4]. The same compound displayed a chromatographic logP in data set [3] of 6.01.

With `Cc1nn2c(C(C)C)c(C(=O)N[C@H]3CCc4ccccc43)cnc2c1-c1ccc(F)c(C(F)(F)F)c1` [Example 294], the inhibition at 10 µg/mL in data set [1] was greater than 80%. Moreover, the values for the EC50 in data set [2] and in data set [4] were 50.1 nM and less than 10 µg/mL, respectively. In data set [3], this compound displayed a chromatographic logP of 5.36.

Consider `Cc1nn2c(C3CC3)c(C(=O)N[C@H]3CCc4ccccc43)cnc2c1-c1cccc(Cl)c1` [Example 352], for which the EC50 in data set [5] is less than 0.1 µg/mL; in data set [6], less than 0.1 µg/mL; in data set [2], 6.31 nM; in data set [4] it was less than 0.1 µg/mL. This compound showed a chromatographic logP in data set [3] of 4.38.

As to `Cc1nn2c(C3CC3)c(C(=O)N[C@H]3CCc4ccccc43)cnc2c1-c1cccc(F)c1` [Example 353], the EC50 in data set [5] is less than 1 µg/mL; in data set [6], less than 0.1 µg/mL; in data set [2] it was 7.94 nM; in data set [4] it was less than 0.1 µg/mL. The chromatographic logP in data set [3] was determined as 3.95.

As to `Cc1nn2c(C3CC3)c(C(=O)N[C@H]3CCc4ccccc43)cnc2c1-c1ccccc1F` [Example 357], the EC50 in data set [5] is less than 0.1 µg/mL; in data set [6], less than 0.1 µg/mL; in data set [2], 6.31 nM; in data set [4], less than 0.1 µg/mL. In data set [3], this compound returned a chromatographic logP of 3.67.

Regarding `CCn1cc(-c2c(C)nn3c(C(C)C)c(C(=O)N[C@H]4CCc5ccccc54)cnc23)cn1` [Example 374], the inhibition at 10 µg/mL in data set [1] is greater than 80%. In addition, the values for the EC50 in data set [2] and in data set [4] were 50.1 nM and less than 10 µg/mL, respectively. The compound also gave a chromatographic logP in data set [3] of 3.44.

Regarding `Cc1nn2c(C(C)C)c(C(=O)N[C@H]3CCc4ccccc43)cnc2c1-c1cnn(CC2CC2)c1` [Example 376], the inhibition at 10 µg/mL in data set [1] was greater than 80%. Moreover, the results for the half-maximal effective concentration (EC50) in data set [2] and in data set [4] were 7.94 nM and less than 10 µg/mL, respectively. In data set [3], this compound came in with a chromatographic logP of 3.83.

Regarding `Cc1nn2c(C(C)C)c(C(=O)N[C@H]3CCc4ccccc43)cnc2c1-c1cnn(CC(F)F)c1` [Example 377], the inhibition at 10 µg/mL in data set [1] was greater than 80%. The EC50 in data set [2] is 15.8 nM; in data set [4], less than 10 µg/mL. In data set [3], this compound gave a chromatographic logP of 3.49.

Regarding `COCc1cccc(-c2c(C)nn3c(C(C)C)c(C(=O)N[C@H]4CCOc5ccccc54)cnc23)c1` [Example 392], in data set [1], the inhibition at 10 µg/mL is greater than 80%. Besides, the EC50 was 10 nM in data set [2] and less than 0.1 µg/mL in data set [4]. The chromatographic logP in data set [3] came to 4.16.

As to `Cc1nn2c(C(C)C)c(C(=O)N[C@H]3CCOc4ccccc43)cnc2c1-c1cccc(N(C)C)c1` [Example 393], the inhibition at 10 µg/mL in data set [1] was greater than 80%. Further, the EC50 was 10 nM in data set [2] and less than 0.1 µg/mL in data set [4]. Moreover, in data set [3], the chromatographic logP amounted to 3.64.

For the compound `COc1cccc(-c2c(C)nn3c(C(C)C)c(C(=O)N[C@H]4CCOc5ccccc54)cnc23)c1` [Example 395], the EC50 was less than 0.1 µg/mL in data set [5], less than 0.1 µg/mL in data set [6], 7.94 nM in data set [2] and less than 0.1 µg/mL in data set [4]. This compound also had a chromatographic logP in data set [3] of 4.24.

In the case of `Cc1nn2c(C(C)C)c(C(=O)N[C@H]3CCOc4ccccc43)cnc2c1-c1cccc(F)c1` [Example 396], the 50% effective concentration (EC50) in data set [5] is less than 0.1 µg/mL; in data set [6] it was less than 0.1 µg/mL; in data set [2], 15.8 nM; in data set [4], less than 0.1 µg/mL. The compound further yielded a chromatographic logP in data set [3] of 4.45.

`Cc1nn2c(C(C)C)c(C(=O)N[C@H]3CCOc4ccccc43)cnc2c1-c1cncc(Cl)c1` [Example 402]: the EC50 was less than 0.1 µg/mL in data set [5], less than 0.1 µg/mL in data set [6], 20 nM in data set [2] and less than 0.1 µg/mL in data set [4]. Moreover, in data set [3], the chromatographic logP amounted to 3.91.

As to `Cc1nn2c(C3CC3)c(C(=O)N[C@H]3CCc4ccccc43)cnc2c1-c1c(F)cccc1F` [Example 405], the EC50 in data set [5] was less than 0.1 µg/mL; in data set [6], less than 0.1 µg/mL; in data set [2], 3.16 nM; in data set [4], less than 0.1 µg/mL. In data set [3], this compound gave a chromatographic logP of 3.66.

In the case of `Cc1nn2c(C(C)C)c(C(=O)N[C@H]3CCOc4ccccc43)cnc2c1-c1cnn(CC2CC2)c1` [Example 419], the inhibition at 10 µg/mL in data set [1] was greater than 80%. The EC50 in data set [2] is 7.94 nM; in data set [4], less than 10 µg/mL. The chromatographic logP in data set [3] is 3.59.

As for `Cc1nn2c(C3CC3)c(C(=O)N[C@H]3CCc4ccccc43)cnc2c1-c1cc(F)ccc1F` [Example 422], the EC50 in data set [5] is less than 0.1 µg/mL; in data set [6] it was less than 0.1 µg/mL; in data set [2], 3.98 nM; in data set [4] it was less than 0.1 µg/mL. Also, the chromatographic logP in data set [3] is 3.84.

Consider `Cc1nn2c(C3CC3)c(C(=O)N[C@H]3CCc4ccccc43)cnc2c1-c1cccc(F)c1F` [Example 424], for which the 50% effective concentration (EC50) in data set [5] was less than 0.1 µg/mL; in data set [6], less than 0.1 µg/mL; in data set [2], 2.51 nM; in data set [4], less than 0.1 µg/mL. In data set [3], this compound gave a chromatographic logP of 3.84.

In the case of `Cc1nn2c(C3CC3)c(C(=O)N[C@H]3CCc4ccccc43)cnc2c1-c1c(F)ccc(F)c1F` [Example 437], the EC50 in data set [5] was less than 0.1 µg/mL; in data set [6], less than 0.1 µg/mL; in data set [2], 1.58 nM; in data set [4], less than 0.1 µg/mL. The same compound showed a chromatographic logP in data set [3] of 3.83.

Take `Cc1nn2c(C3CC3)c(C(=O)N[C@H]3CCc4ccccc43)cnc2c1-c1c(F)cc(F)cc1F` [Example 438]: the EC50 in data set [5] is less than 0.1 µg/mL; in data set [6], less than 0.1 µg/mL; in data set [2] it was 1.26 nM; in data set [4], less than 0.1 µg/mL. Moreover, the chromatographic logP in data set [3] stood at 3.87.

Take `Cc1nn2c(C(C)C)c(C(=O)N[C@H]3CCOc4ccccc43)cnc2c1-c1cccc(N2CC(F)(F)C2)c1` [Example 440]: the inhibition at 10 µg/mL in data set [1] is greater than 80%. The half-maximal effective concentration (EC50) in data set [2] is 12.6 nM; in data set [4], less than 1 µg/mL. Besides, the chromatographic logP in data set [3] stood at 4.64.

For `Cc1nn2c(C3CC3)c(C(=O)N[C@H]3CCOc4ccccc43)cnc2c1-c1ccccc1Cl` [Example 452], the EC50 was less than 0.1 µg/mL in data set [5], less than 0.1 µg/mL in data set [6], 2.51 nM in data set [2] and less than 0.1 µg/mL in data set [4]. In data set [3], this compound displayed a chromatographic logP of 3.64.

As for `Cc1nn2c(C3CC3)c(C(=O)N[C@H]3CCOc4ccccc43)cnc2c1-c1cccc(F)c1F` [Example 457], the EC50 in data set [5] is less than 0.1 µg/mL; in data set [6], less than 0.1 µg/mL; in data set [2], 1.26 nM; in data set [4], less than 0.1 µg/mL. The chromatographic logP in data set [3] worked out at 3.61.

On to `Cc1nn2c(C3CC3)c(C(=O)N[C@H]3CCOc4ccccc43)cnc2c1-c1c(F)cccc1Cl` [Example 458], for which the 50% effective concentration (EC50) in data set [5] was less than 0.1 µg/mL; in data set [6] it was less than 0.1 µg/mL; in data set [2] it was 1.58 nM; in data set [4], less than 0.1 µg/mL. In data set [3], this compound showed a chromatographic logP of 3.65.

As to `Cc1nn2c(C3CC3)c(C(=O)N[C@H]3CCOc4ccccc43)cnc2c1-c1cc(Cl)cc(C(F)(F)F)c1` [Example 465], the EC50 in data set [5] is less than 0.1 µg/mL; in data set [6] it was less than 0.1 µg/mL; in data set [2], 10 nM; in data set [4] it was less than 0.1 µg/mL. In addition, in data set [3], the chromatographic logP came out at 5.11.

Take `Cc1nn2c(N3CCOCC3)c(C(=O)N[C@H]3CCOc4ccccc43)cnc2c1-c1cccc(F)c1F` [Example 534]: the EC50 was less than 0.1 µg/mL in data set [5], less than 0.1 µg/mL in data set [6], 3.16 nM in data set [2] and less than 0.1 µg/mL in data set [4]. Also, the chromatographic logP in data set [3] came out at 4.32.

As to `Cc1nn2c(N3CCOCC3)c(C(=O)N[C@H]3CCOc4ccccc43)cnc2c1-c1c(F)ccc(F)c1F` [Example 535], the concentration giving a half-maximal response (EC50) in data set [5] is less than 0.1 µg/mL; in data set [6], less than 0.1 µg/mL; in data set [2] it was 2.51 nM; in data set [4] it was less than 0.1 µg/mL. Moreover, the chromatographic logP in data set [3] turned out to be 3.29.
